Measured values published in patent publication US20040214833A1, “Tricyclic heteroaromatic compounds” (Boehringer Ingelheim International GmbH, priority 2003, published 2004).
Like-named read-outs stand apart in the source and are kept apart here.

Target: T1, N-type calcium channel (Homo sapiens, UniProt Q00975)
T1 construct: expressed in transfected cells; host or cells: HEK 293
Test: Patch-Clamp blockade of voltage-dependent N-type calcium channels in recombinant HEK 293 cells
Type: cell-based
From the text: The antinociceptive activity of the compounds of this invention is based on a blockade of the voltage-dependent N-type calcium channels. This inhibiting activity is detected electrophysiologically by the Patch-Clamp technique (cf: Improved patch-clamp techniques for high resolution current recording from cells and cell-free membrane patches; Hamill et al.; Pflügers Archiv, 391, 1981, 85-100) on recombinant HEK 293 cells which express the N-type calcium channel.

[1] = N-type calcium channel, Patch-Clamp, HEK 293 cells, read-out: IC50 value
[2] = Patch-Clamp technique, recombinant HEK 293 cells which express the N-type calcium channel, read-out: IC50 values

T1 sequence (Q00975 whole entry): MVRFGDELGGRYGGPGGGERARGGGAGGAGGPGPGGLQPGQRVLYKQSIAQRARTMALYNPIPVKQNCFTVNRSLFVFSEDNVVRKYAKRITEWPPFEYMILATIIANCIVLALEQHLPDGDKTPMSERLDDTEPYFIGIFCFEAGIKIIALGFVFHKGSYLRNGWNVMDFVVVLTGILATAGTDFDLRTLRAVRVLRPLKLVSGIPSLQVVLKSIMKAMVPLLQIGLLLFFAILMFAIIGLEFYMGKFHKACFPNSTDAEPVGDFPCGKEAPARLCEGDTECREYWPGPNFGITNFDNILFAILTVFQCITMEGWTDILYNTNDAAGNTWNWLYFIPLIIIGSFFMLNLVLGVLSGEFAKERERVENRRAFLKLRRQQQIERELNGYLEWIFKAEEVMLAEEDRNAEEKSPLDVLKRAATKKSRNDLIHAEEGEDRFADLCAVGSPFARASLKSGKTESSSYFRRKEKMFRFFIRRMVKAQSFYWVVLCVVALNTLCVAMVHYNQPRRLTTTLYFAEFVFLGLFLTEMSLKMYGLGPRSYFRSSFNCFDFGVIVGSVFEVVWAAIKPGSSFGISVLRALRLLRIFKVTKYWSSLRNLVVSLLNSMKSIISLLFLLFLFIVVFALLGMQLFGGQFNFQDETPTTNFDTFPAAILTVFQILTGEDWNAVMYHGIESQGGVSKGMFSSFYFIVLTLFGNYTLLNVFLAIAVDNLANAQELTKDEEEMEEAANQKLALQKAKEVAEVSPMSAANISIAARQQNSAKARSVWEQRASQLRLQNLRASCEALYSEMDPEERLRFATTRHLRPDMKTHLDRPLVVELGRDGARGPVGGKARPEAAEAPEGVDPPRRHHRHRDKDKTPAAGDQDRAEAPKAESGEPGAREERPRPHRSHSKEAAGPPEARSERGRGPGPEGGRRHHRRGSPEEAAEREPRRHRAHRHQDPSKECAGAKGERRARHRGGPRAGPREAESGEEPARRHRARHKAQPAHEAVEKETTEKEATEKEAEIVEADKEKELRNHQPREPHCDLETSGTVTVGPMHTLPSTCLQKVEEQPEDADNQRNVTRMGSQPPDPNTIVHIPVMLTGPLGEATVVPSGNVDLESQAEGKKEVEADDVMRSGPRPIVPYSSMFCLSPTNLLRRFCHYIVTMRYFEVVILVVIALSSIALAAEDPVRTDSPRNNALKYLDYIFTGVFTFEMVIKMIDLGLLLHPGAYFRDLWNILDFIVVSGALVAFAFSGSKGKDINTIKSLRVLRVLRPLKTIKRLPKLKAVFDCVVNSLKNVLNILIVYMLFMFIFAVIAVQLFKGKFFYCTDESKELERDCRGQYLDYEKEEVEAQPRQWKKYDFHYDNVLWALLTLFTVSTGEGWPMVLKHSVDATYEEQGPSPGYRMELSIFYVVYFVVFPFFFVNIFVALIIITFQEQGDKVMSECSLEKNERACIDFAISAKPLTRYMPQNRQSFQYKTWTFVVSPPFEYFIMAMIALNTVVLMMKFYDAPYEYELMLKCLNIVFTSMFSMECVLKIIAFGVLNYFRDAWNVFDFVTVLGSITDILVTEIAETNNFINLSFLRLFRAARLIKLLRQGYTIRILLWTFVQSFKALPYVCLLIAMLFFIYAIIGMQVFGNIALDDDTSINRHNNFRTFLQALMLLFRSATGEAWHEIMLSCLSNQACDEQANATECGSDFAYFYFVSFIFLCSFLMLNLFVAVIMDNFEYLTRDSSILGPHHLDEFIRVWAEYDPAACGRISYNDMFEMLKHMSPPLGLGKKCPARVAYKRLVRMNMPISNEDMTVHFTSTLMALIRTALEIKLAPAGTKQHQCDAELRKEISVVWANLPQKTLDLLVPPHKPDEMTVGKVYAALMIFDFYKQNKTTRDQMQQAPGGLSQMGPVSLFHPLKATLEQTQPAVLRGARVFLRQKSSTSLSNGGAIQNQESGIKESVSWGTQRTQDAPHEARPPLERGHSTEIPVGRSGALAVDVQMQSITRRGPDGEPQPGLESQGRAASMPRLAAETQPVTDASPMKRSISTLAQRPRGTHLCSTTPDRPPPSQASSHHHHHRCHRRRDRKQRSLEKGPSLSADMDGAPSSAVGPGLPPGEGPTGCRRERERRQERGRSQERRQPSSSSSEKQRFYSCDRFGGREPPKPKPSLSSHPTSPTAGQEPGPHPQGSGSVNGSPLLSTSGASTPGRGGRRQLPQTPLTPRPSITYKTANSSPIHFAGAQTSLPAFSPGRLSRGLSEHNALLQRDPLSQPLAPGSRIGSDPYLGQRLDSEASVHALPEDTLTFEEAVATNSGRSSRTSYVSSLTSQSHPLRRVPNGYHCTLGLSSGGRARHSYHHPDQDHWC
T1 sequence (P54289 25-956 partner limits assumed): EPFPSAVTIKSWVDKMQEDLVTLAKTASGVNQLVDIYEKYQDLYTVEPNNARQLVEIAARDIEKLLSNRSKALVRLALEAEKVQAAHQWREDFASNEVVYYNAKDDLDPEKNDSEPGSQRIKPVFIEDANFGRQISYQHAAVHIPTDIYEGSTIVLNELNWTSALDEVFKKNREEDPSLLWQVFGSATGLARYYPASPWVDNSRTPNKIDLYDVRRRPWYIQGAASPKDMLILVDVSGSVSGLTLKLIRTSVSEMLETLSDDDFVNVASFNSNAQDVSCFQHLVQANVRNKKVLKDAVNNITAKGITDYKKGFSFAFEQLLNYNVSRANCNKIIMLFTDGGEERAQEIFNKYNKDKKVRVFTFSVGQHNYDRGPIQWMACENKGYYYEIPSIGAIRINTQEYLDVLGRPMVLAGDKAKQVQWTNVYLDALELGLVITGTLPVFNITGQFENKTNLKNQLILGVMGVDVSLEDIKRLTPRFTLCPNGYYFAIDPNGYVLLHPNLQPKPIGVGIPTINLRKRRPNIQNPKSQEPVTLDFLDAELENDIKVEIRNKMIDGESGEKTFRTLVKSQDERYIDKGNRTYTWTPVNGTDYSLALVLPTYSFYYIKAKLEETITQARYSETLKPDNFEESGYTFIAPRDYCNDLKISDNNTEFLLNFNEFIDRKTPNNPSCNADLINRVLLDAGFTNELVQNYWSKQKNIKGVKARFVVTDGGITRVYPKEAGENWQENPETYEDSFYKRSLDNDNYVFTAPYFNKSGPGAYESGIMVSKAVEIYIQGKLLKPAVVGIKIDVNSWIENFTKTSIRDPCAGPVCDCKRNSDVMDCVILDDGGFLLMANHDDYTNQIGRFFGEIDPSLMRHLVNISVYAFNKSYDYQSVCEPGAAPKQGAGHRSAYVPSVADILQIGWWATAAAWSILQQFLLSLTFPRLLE
T1 sequence (P54289 957-1103 partner limits assumed): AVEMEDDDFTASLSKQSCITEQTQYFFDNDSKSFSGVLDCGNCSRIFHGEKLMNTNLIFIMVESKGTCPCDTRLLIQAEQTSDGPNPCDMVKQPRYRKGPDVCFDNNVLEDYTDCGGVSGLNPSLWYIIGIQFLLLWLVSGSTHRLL
T1 sequence (P54284 whole entry partner): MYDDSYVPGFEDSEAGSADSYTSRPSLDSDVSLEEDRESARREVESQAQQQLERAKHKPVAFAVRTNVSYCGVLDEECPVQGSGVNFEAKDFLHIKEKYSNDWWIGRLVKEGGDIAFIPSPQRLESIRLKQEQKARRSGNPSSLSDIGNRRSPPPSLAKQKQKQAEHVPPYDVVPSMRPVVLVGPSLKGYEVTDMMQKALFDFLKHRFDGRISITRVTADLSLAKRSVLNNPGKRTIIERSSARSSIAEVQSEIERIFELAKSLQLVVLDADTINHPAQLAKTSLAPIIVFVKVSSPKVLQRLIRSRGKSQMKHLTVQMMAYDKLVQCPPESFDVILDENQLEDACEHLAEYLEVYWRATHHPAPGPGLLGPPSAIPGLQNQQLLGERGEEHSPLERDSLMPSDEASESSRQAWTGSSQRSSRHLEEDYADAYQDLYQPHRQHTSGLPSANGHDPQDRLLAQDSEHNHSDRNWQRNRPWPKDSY

CNc1cc(-c2ccncc2)nc2ccc3c(ncn3C)c12 [Example 1, 3-methyl-9-methylamino-7-(pyridin-4-yl)-3H-imidazo[4,5-f]quinoline]
IC50 [1]: 9.9 µM

CNc1cc(-c2cccc(F)c2)nc2ccc3c(ncn3C)c12 [Example 2, 7-(3-fluorophenyl)-3-methyl-9-methylamino-3H-imidazo [4,5-f]quinoline]
IC50 [1]: 15.2 µM

CN(C)c1cc(-c2cccc(F)c2)nc2ccc3c(ncn3C)c12 [Example 3, 9-dimethylamino-7-(3-fluorophenyl)-3-methyl-3H-imidazo [4,5-f]quinoline]
IC50 value (N-type calcium channel, Patch-Clamp, HEK 293 cells): biphasic

Cc1nc2c(ccc3nc(-c4cccc(F)c4)cc(N(C)C)c32)s1 [Example 4, 9-dimethylamino-7-(3-fluorophenyl)-2-methyl-thiazolo[4,5-f]quinoline]
IC50 [2]: 3.6 µM

CN(C)c1cc(-c2cccc(F)c2)nc2ccc3ncsc3c12 [Example 5, 9-dimethylamino-7-(3-fluorophenyl)-thiazolo[5,4-f]quinoline]
IC50 [1]: 14.3 µM

CNc1cc(-c2cccc(F)c2)nc2ccc3sc(C)nc3c12 [Example 6, 7-(3-fluorophenyl)-2-methyl-9-methylamino thiazolo[4,5-f]quinoline]
IC50 [2]: 2 µM
